The source of these data is EP0326329B1, “Quinazoline derivatives useful as insecticides” (Dow AgroSciences LLC, priority 1988, dated 1989).

Format in all cases: in vivo
The test system of series [1] is Botrytis cinerea (gray mold). Briefly: Greenhouse Test 1, foliar spray fungicide screen (GRAY MOLD), host grape berries. The settings on record: disease control rating, 400 ppm (+++ at 100 ppm).
The subject of series [2] is Erysiphe graminis tritici (powdery mildew). The series is described as follows: Greenhouse Test 1, foliar spray fungicide screen (POWD MDEW), host wheat. Particulars: disease control rating, 400 ppm (+++ at 100 ppm).
Series [3] concerns Twospotted spider mites (Tetranychus urticae Koch). The series is described as follows: Mite/insect screen, sprayed squash cotyledons (SM). Particulars: percent mortality; for mortality at 400 ppm / mortality at 200 ppm: Tetranychus urticae, read-out: SM RESULTS %; for mortality at 400 ppm: spray rate 400 ppm; for mortality at 200 ppm: spray rate 200 ppm. In outline: (§1)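 Compounds were dissolved in 50:50 acetone/alcohol containing sulfonate/nonionic emulsifier blends (23 g and 13 g per liter) and diluted with water to test concentrations. Leaves were sprayed on both surfaces to runoff and dried for one hour. Percent mortality and phytotoxicity were scored after standard exposure periods.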

For series [4], the system named is Puccinia recondita tritici (leaf rust). Briefly: Greenhouse Test 1, foliar spray fungicide screen (LEAF RUST), host wheat. Particulars: disease control rating, 400 ppm (+++ at 100 ppm).
Series [5] has as its system Pseudoperonospora cubensis (downy mildew). The series is described as follows: Greenhouse Test 1, foliar spray fungicide screen (DOWN MDEW), host squash. The settings on record: disease control rating, 400 ppm (+++ at 100 ppm).
For series [6], the system named is melon aphids (Aphis gossypii Glover). Briefly: Mite/insect screen, sprayed squash cotyledons (MA). Particulars: percent mortality; for mortality at 400 ppm / mortality at 200 ppm: Aphis gossypii, read-out: MA RESULTS %; for mortality at 400 ppm: spray rate 400 ppm; for mortality at 200 ppm: spray rate 200 ppm. The procedure, abridged: as §1
Series [7] concerns Pyricularia oryzae (rice blast). The settings on record: disease control rating, foliar spray, host rice; 400 ppm (+++ at 100 ppm).
The test system of series [8] is Southern corn rootworm (Diabrotica undecimpuctata howardi Barber). Briefly: Mite/insect screen, soil treatment (CRW). Particulars: percent mortality; for mortality at 24 ppm / mortality at 12 ppm: Diabrotica, soil treatment, read-out: CRW RESULTS %; for mortality at 24 ppm: CRW rate 24.00 ppm; for mortality at 12 ppm: CRW rate 12.00 ppm. The procedure, abridged:
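Compounds dissolved in acetone/alcohol (50:50) with Toximul R/S emulsifiers, diluted with water. Soil (15 g, with presoaked corn seed) treated with 1 mL test solution, dried 6–12 h, then five 2–3 instar larvae added; held at 23°C. Percent mortality and phytotoxicity scored after standard exposure periods.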

For series [9], the system named is southern armyworm (Spodopetra eridania Cramer). The series is described as follows: Mite/insect screen, sprayed squash leaves (SAW). Particulars: percent mortality; for mortality at 400 ppm / mortality at 200 ppm: Spodoptera eridania, read-out: SAW RESULTS %; for mortality at 400 ppm: spray rate 400 ppm; for mortality at 200 ppm: spray rate 200 ppm. In outline: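 For the armyworm test, two uninfested sprayed leaves were excised, once dry for an hour, and placed in a Petri dish holding larvae. Spray solutions came from an emulsifier-containing 50:50 acetone/alcohol formulation diluted with water and were applied to runoff.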

In the case of `OC(CNc1ncnc2ccccc12)c1ccc2ccccc2c1` (stereo not drawn) [Example 105, α-[(4-quinazolinylamino)methyl]-2-naphthalenemethanol], the “GRAY MOLD” value in [1] is “- (- = 0-19% control at 400 ppm)”. In addition, the “POWD MDEW” value in series [2] was “- (- = 0-19% control at 400 ppm)”. The mortality at 400 ppm in [3], in series [6] and in series [9] was 0% each time. Also, the “LEAF RUST” value in [4] was “++ (++ = 90-100% control at 400 ppm)”. In addition, in [5], the “DOWN MDEW” value is “- (- = 0-19% control at 400 ppm)”. Besides, in series [7], the “RICE BLAST” value is listed as “+ (+ = 20-89% control at 400 ppm)”. The mortality at 24 ppm in series [8] stood at 0%.
Take `Fc1cccc2c(OCCc3cccc(Oc4ccccc4)c3)ncnc12` [Example 163, 8-fluoro-4-[2-(3-phenoxyphenyl)ethoxy]quinazoline]: in series [1], the “GRAY MOLD” value was “- (- = 0-19% control at 400 ppm)”. The “POWD MDEW” value in [2] is given as “+++ (+++ = 90-100% control at 100 ppm)”. In [3], the mortality at 200 ppm came out at 0% and the mortality at 400 ppm stood at 20%. Also, the “LEAF RUST” value in series [4] is “+++ (+++ = 90-100% control at 100 ppm)”. For the same compound, the “DOWN MDEW” value in series [5] is given as “+++ (+++ = 90-100% control at 100 ppm)”. In series [6], the mortality at 200 ppm was 80% and the mortality at 400 ppm amounted to 80%. In addition, in series [7], the “RICE BLAST” value is reported as “+++ (+++ = 90-100% control at 100 ppm)”. For the same compound, in series [8], the mortality at 12 ppm was 0% and the mortality at 24 ppm was 0%. Besides, in [9], the mortality at 200 ppm stood at 80% and the mortality at 400 ppm was 40%.
For `c1ccc(Oc2ccc(CCNc3ncnc4ccccc34)cc2)cc1` [Example 104, N-[2-(4-phenoxyphenyl)ethyl]-4-quinazolinamine], the “GRAY MOLD” value in series [1] is “- (- = 0-19% control at 400 ppm)”. The “POWD MDEW” value in series [2] was “+++ (+++ = 90-100% control at 100 ppm)”. Besides, the mortality at 400 ppm in [3] was 0%; in series [6] it was 0%; in series [9] it was 100%. For the same compound, the “SM RESULTS %” value in series [3] (rate not given) is given as 100%. Further, in [4], the “LEAF RUST” value is listed as “+++ (+++ = 90-100% control at 100 ppm)”. The “DOWN MDEW” value in series [5] is “+++ (+++ = 90-100% control at 100 ppm)”. The “MA RESULTS %” value in series [6] (rate not given) is recorded as 100%. For the same compound, the “RICE BLAST” value in [7] is “+++ (+++ = 90-100% control at 100 ppm)”. Besides, the mortality at 24 ppm in series [8] is 100%. In series [8] (rate not given), the “CRW RESULTS %” value was found to be 0%. Besides, in [9] (rate not given), the “SAW RESULTS %” value was found to be 0%.
Turning to `CC(C)c1ccc(CCCc2ncnc3ccccc23)cc1` [Example 126, 4-[3-[4-(1-methylethyl)phenyl]propyl]quinazoline], the “GRAY MOLD” value in [1] is reported as “- (- = 0-19% control at 400 ppm)”. Besides, in [2], the “POWD MDEW” value was “+ (+ = 20-89% control at 400 ppm)”. In series [3], the mortality at 200 ppm was determined as 100% and the mortality at 400 ppm is 100%. Moreover, the “LEAF RUST” value in series [4] is “+ (+ = 20-89% control at 400 ppm)”. Besides, the “DOWN MDEW” value in series [5] is “++ (++ = 90-100% control at 400 ppm)”. Moreover, in series [6], the mortality at 200 ppm worked out at 100% and the mortality at 400 ppm stood at 80%. Besides, in [7], the “RICE BLAST” value was “+++ (+++ = 90-100% control at 100 ppm)”. Also, in series [8], the mortality at 12 ppm came to 0% and the mortality at 24 ppm came to 0%. In series [9], the mortality at 200 ppm is 0% and the mortality at 400 ppm amounted to 0%.
Consider `CC(C)(C)c1ccc(CCOc2ncnc3c(F)cccc23)cc1` [Example 94, 8-fluoro-4-[2-[4-(t-butyl)phenyl]ethoxy]quinazoline], for which the “GRAY MOLD” value in series [1] is on record as “- (- = 0-19% control at 400 ppm)”. Also, the “POWD MDEW” value in series [2] is given as “+++ (+++ = 90-100% control at 100 ppm)”. In series [3], the mortality at 200 ppm was 100% and the mortality at 400 ppm amounted to 0%. For the same compound, in [4], the “LEAF RUST” value is “+++ (+++ = 90-100% control at 100 ppm)”. Further, the “DOWN MDEW” value in series [5] was “+++ (+++ = 90-100% control at 100 ppm)”. In addition, in [6], the mortality at 200 ppm came out at 80% and the mortality at 400 ppm was 0%. In [7], the “RICE BLAST” value is given as “+++ (+++ = 90-100% control at 100 ppm)”. Also, in [8], the mortality at 12 ppm came to 0% and the mortality at 24 ppm came out at 0%. Further, in series [9], the mortality at 200 ppm is 100% and the mortality at 400 ppm came to 100%.
Take `c1ccc(CCOc2ncnc3ccccc23)cc1` [Example 33, 4-(2-phenylethoxy)quinazoline]: the “GRAY MOLD” value in series [1] is given as “- (- = 0-19% control at 400 ppm)”. Moreover, in series [2], the “POWD MDEW” value is “++ (++ = 90-100% control at 400 ppm)”. In addition, in series [3], the mortality at 200 ppm stood at 50% and the mortality at 400 ppm was determined as 80%. In addition, the “LEAF RUST” value in series [4] is “+++ (+++ = 90-100% control at 100 ppm)”. For the same compound, the “DOWN MDEW” value in series [5] is “++ (++ = 90-100% control at 400 ppm)”. In series [6], the mortality at 200 ppm is 80% and the mortality at 400 ppm came to 100%. The “RICE BLAST” value in [7] was “- (- = 0-19% control at 400 ppm)”. In [8], the mortality at 12 ppm came to 0% and the mortality at 24 ppm stood at 80%. In addition, in series [9], the mortality at 200 ppm is 0% and the mortality at 400 ppm worked out at 0%.
Take `Fc1ccc(-c2ccc(CCOc3ncnc4ccccc34)cc2)cc1` [Example 144, 4-[2-(4'-fluoro-1,1'-biphenyl)-4-ylethoxy]quinazoline]: the “GRAY MOLD” value in series [1] is “- (- = 0-19% control at 400 ppm)”. For the same compound, in [2], the “POWD MDEW” value is on record as “+++ (+++ = 90-100% control at 100 ppm)”. In addition, in series [3], the mortality at 400 ppm was 100%. Also, the “LEAF RUST” value in series [4] is given as “+++ (+++ = 90-100% control at 100 ppm)”. Moreover, in series [5], the “DOWN MDEW” value is reported as “+++ (+++ = 90-100% control at 100 ppm)”. In series [6], the mortality at 200 ppm was found to be 60% and the mortality at 400 ppm is 100%. Besides, the “RICE BLAST” value in series [7] is on record as “+++ (+++ = 90-100% control at 100 ppm)”. In addition, in series [8], the mortality at 12 ppm came to 100% and the mortality at 24 ppm came out at 40%. Moreover, in series [9], the mortality at 200 ppm is 40% and the mortality at 400 ppm was determined as 0%.
In the case of `Fc1cccc2c(OCCC3CCCCC3)ncnc12` [Example 70, 4-(2-cyclohexylethoxy)-8-fluoroquinazoline], the “GRAY MOLD” value in series [1] is reported as “- (- = 0-19% control at 400 ppm)”. Moreover, the “POWD MDEW” value in [2] is “+ (+ = 20-89% control at 400 ppm)”. The mortality at 400 ppm is 80% in series [3], 0% in [6] and 0% in series [9]. The “LEAF RUST” value in [4] is “+ (+ = 20-89% control at 400 ppm)”. Also, the “DOWN MDEW” value in series [5] was “+ (+ = 20-89% control at 400 ppm)”. Moreover, the “RICE BLAST” value in series [7] is “+++ (+++ = 90-100% control at 100 ppm)”. For the same compound, the mortality at 24 ppm in series [8] was 0%.
In the case of `CC(C)(C)c1ccc(CCOc2ncnc3cc(Cl)ccc23)cc1` [Example 136, 7-chloro-4-[2-[4-(1,1-dimethylethyl)phenyl]ethoxy]quinazoline], the “GRAY MOLD” value in series [1] is on record as “- (- = 0-19% control at 400 ppm)”. For the same compound, in series [2], the “POWD MDEW” value was “- (- = 0-19% control at 400 ppm)”. Besides, in series [3], the mortality at 200 ppm was 0% and the mortality at 400 ppm is 0%. In addition, the “LEAF RUST” value in series [4] is given as “- (- = 0-19% control at 400 ppm)”. For the same compound, the “DOWN MDEW” value in series [5] is “- (- = 0-19% control at 400 ppm)”. For the same compound, in series [6], the mortality at 200 ppm was found to be 0% and the mortality at 400 ppm worked out at 0%. Also, the “RICE BLAST” value in series [7] is on record as “- (- = 0-19% control at 400 ppm)”. Besides, in series [8], the mortality at 12 ppm came to 0% and the mortality at 24 ppm came to 0%. In series [9], the mortality at 200 ppm was 100% and the mortality at 400 ppm came out at 0%.
Take `CC(C)(C)c1ccc(CCNc2ncnc3c(F)cccc23)cc1` [Example 100, 8-fluoro-N-[2-[4-(t-butyl)phenyl]ethyl]-4-quinazolinamine]: the “GRAY MOLD” value in series [1] is reported as “- (- = 0-19% control at 400 ppm)”. Also, the “POWD MDEW” value in [2] is “+++ (+++ = 90-100% control at 100 ppm)”. The mortality at 200 ppm in [3], in series [6] and in [9] was 80% in each case. For the same compound, the mortality at 400 ppm in [3], in series [6] and in series [9] was 0% each time. For the same compound, the “LEAF RUST” value in series [4] was “+++ (+++ = 90-100% control at 100 ppm)”. Also, in [5], the “DOWN MDEW” value is reported as “+++ (+++ = 90-100% control at 100 ppm)”. Moreover, in series [7], the “RICE BLAST” value is “+++ (+++ = 90-100% control at 100 ppm)”. The mortality at 12 ppm in series [8] came out at 0%. In addition, the mortality at 24 ppm in [8] is 100%.
